Measurements taken from the supplement of paper PMC6045584.

Each test system was assayed with CC[C@@]1(O)C(=O)OCc2c1cc1n(c2=O)Cc2cc3ccccc3nc2-1 [CAMPTOTHECIN] (assay: area under dose-response curve of surviving fraction (unscaled, Aref=0) (surviving fraction x log10(nM)); higher = more resistant). Settings: exposure time: 5 days; dose range 0.5-1000 nM.
In short: (§1)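 Three screens per tumour cell line were run in 384-well plates at eight inhibitor concentrations from 0.5 to 1000 nM over five days. Surviving fractions, from CellTiter-Glo luminescence normalised to DMSO-only wells, were fitted with 3-parameter logistic curves in the drc R package. The reported area under the curve is the unscaled activity area. It spans log10 dose, and Aref is 0.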

Test System	area under dose-response curve
U2OS BONE	2.05
VCAP PROSTATE	1.76
VP229 BREAST	1.81
YAMATO SYNOVIAL	0.991
ZR751 BREAST	1.47

Each test system was assayed with COCC[n+]1c2c(n(Cc3cnccn3)c1C)C(=O)c1ccccc1C2=O [YM155] in the same assay as above. Settings: exposure time: 5 days; dose range 0.5-1000 nM.
In short: as §1

Test System	area under dose-response curve
ASKA SYNOVIAL	1.57
BT20 BREAST	0.651
BT549 BREAST	1.74
CADOES1 SOFT TISSUE	3.1
CCK81 LARGE INTESTINE	2.51
CHLA90 AUTONOMIC GANGLIA	1.31
CME SYNOVIAL	1.3
HCC78 LUNG	0.851
HMLE3 BREAST	1.02
HMT3552 BREAST	1.94
HT1080 SOFT TISSUE	1.04
LM7 BONE	0.956
MDAMB157 BREAST	1.53
MFM223 BREAST	0.996
MG63 BONE	1.43
NOS1 BONE	1.08

Test System	area under dose-response curve
RDES SOFT TISSUE	1.4
SCC47 HEADNECK	1.31
SG27 HEADNECK	1.43
SG31 HEADNECK	1.96
SG32 HEADNECK	0.928
SIHA CERVIX	1.48
SJSA1 BONE	5.19
SNU475 LIVER	1.91
SUM44 BREAST	2.05
SUM159 BREAST	1.25
U2OS BONE	1.16
VCAP PROSTATE	0.945
VP229 BREAST	1.79
YAMATO SYNOVIAL	1.2
ZR751 BREAST	1.2

The test systems below were run with COc1cc2ncnc(Nc3ccc(F)c(Cl)c3)c2cc1OCCCN1CCOCC1 [GEFITINIB] in the same assay as above. Settings: exposure time: 5 days; dose range 0.5-1000 nM.
In short: as §1

Test System	area under dose-response curve
ASKA SYNOVIAL	3.71
BT20 BREAST	3.62
BT549 BREAST	3.57
CADOES1 SOFT TISSUE	3.02
CCK81 LARGE INTESTINE	1.85
CHLA90 AUTONOMIC GANGLIA	2.9
HMT3552 BREAST	3.14
LM7 BONE	3.49
MDAMB157 BREAST	3.2
MFM223 BREAST	3.88
MG63 BONE	3.47
RDES SOFT TISSUE	3.69
SCC47 HEADNECK	3
SG27 HEADNECK	3.65
SG32 HEADNECK	4.01
SIHA CERVIX	3.44
SUM44 BREAST	4.14
SUM159 BREAST	3.52
VCAP PROSTATE	3.75
VP229 BREAST	2.63
YAMATO SYNOVIAL	4.25

The test systems below were run with C[C@]1(O)C[C@@H](c2nc(-c3ccc4ccc(-c5ccccc5)nc4c3)c3c(N)nccn32)C1 [OSI-906] in the same assay as above. Settings: exposure time: 5 days; dose range 0.5-1000 nM.
In short: as §1

Test System	area under dose-response curve
ASKA SYNOVIAL	3.41
BT20 BREAST	2.91
BT549 BREAST	3.07
CADOES1 SOFT TISSUE	3.12
CCK81 LARGE INTESTINE	2.3
CHLA90 AUTONOMIC GANGLIA	2.73
HCC78 LUNG	2.75
HMLE3 BREAST	2.79
HMT3552 BREAST	3.17
HT1080 SOFT TISSUE	3.17
LM7 BONE	2.32
MDAMB157 BREAST	2.98
MFM223 BREAST	2.94
MG63 BONE	3.11
NOS1 BONE	2.83
RDES SOFT TISSUE	2.76
SCC47 HEADNECK	3.41
SG31 HEADNECK	2.94
SG32 HEADNECK	2.28
SIHA CERVIX	3.17
SNU475 LIVER	3.01
SUM159 BREAST	3.15
U2OS BONE	3.08
VCAP PROSTATE	2.78
VP229 BREAST	2.77
ZR751 BREAST	2.62

The test systems below were run with Cc1ccc(-c2cc(C(F)(F)F)nn2-c2ccc(S(N)(=O)=O)cc2)cc1 [CELECOXIB] in the same assay as above. Settings: exposure time: 5 days; dose range 0.5-1000 nM.
In short: as §1

Test System	area under dose-response curve
ASKA SYNOVIAL	3.87
BT20 BREAST	3.78
BT549 BREAST	3.78
CADOES1 SOFT TISSUE	2.95
CCK81 LARGE INTESTINE	2.59
CHLA90 AUTONOMIC GANGLIA	3.34
CME SYNOVIAL	4.61
HCC78 LUNG	3.06
HMLE3 BREAST	3.53
HMT3552 BREAST	3.77
LM7 BONE	3.39
MG63 BONE	3.57
NOS1 BONE	3.88
RDES SOFT TISSUE	3.85
SCC47 HEADNECK	3.63
SG27 HEADNECK	3.88
SG31 HEADNECK	4.19
SG32 HEADNECK	4.18
SIHA CERVIX	3.52
SJSA1 BONE	5.36
SNU475 LIVER	3.49
SUM44 BREAST	4.41
SUM159 BREAST	3.58
U2OS BONE	3.42
VP229 BREAST	4.03
YAMATO SYNOVIAL	4.62
ZR751 BREAST	3.57

Each test system was assayed with O=C(O)C1(C(=O)O)CCC1.[NH2-].[NH2-].[Pt+2] [CARBOPLATIN] in the same assay as above. Settings: exposure time: 5 days; dose range 0.5-1000 nM.
In short: as §1

Test System	area under dose-response curve
ASKA SYNOVIAL	3.72
BT549 BREAST	3.61
CCK81 LARGE INTESTINE	2.67
CME SYNOVIAL	4.52
HCC78 LUNG	3.35
HT1080 SOFT TISSUE	3.51
MFM223 BREAST	3.74
NOS1 BONE	3.95
RDES SOFT TISSUE	3.72
SG27 HEADNECK	3.6
SG31 HEADNECK	3.73
SG32 HEADNECK	3.86
SIHA CERVIX	3.82
SJSA1 BONE	4.73
SNU475 LIVER	3.44
SUM44 BREAST	3.73
U2OS BONE	3.52
VCAP PROSTATE	3.55
VP229 BREAST	3.55
YAMATO SYNOVIAL	4.26
ZR751 BREAST	3.96
